Results on 10 molecules are retold here after patent US10519152B2, “Compounds and their use in treating cancer” (AstraZeneca AB, priority 2017, dated 2019).

The test concerns the target T1, recombinant human Estrogen Receptor alpha ligand binding domain, residues 307-554 (ER alpha-LBD (GST)) (Homo sapiens, UniProt P03372).
T1 construct: made in house
T1 sequence (P03372 307-554): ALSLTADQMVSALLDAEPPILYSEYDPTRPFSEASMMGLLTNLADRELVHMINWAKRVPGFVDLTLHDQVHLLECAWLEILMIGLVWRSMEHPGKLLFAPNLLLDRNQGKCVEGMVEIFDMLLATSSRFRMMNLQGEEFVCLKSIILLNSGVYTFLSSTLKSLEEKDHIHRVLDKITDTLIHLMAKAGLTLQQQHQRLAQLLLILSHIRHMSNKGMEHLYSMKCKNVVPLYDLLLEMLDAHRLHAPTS
The experiment in a line: ERα binding assay (LanthaScreen TR-FRET competition). As to conditions: TR-FRET competition with Fluormone ES2 tracer, 4 hours at room temperature; single experiment or average of two or more. Background: TR-FRET usually uses a lanthanide donor and a delayed reading to cut background.

As usually defined, the IC50 is the concentration at which inhibition is half-maximal.

As for `Cc1ncsc1-c1ccc(CNC(=O)[C@@H]2C[C@@H](O)CN2C(=O)[C@@H](NC(=O)COCCC(F)(F)CCOc2cc(F)c([C@@H]3c4[nH]c5ccccc5c4C[C@@H](C)N3CC(C)(C)F)c(F)c2)C(C)(C)C)cc1` [Example 130, (2S,4R)-1-((S)-2-(2-((5-(3,5-Difluoro-4-((1R,3R)-2-(2-fluoro-2-methylpropyl)-3-methyl-2,3,4,9-tetrahydro-1H-pyrido[3,4-b]indol-1-yl)phenoxy)-3,3-difluoropentyl)oxy)acetamido)-3,3-dimethylbutanoyl)-4-hydroxy-N-(4-(4-methylthiazol-5-yl)benzyl)pyrrolidine-2-carboxamide], the IC50 stood at 0.9 nM.

In the case of `Cc1ncsc1-c1ccc(CNC(=O)[C@@H]2C[C@@H](O)CN2C(=O)[C@@H](NC(=O)CNCCC(F)(F)CCOc2cc(F)c([C@@H]3c4[nH]c5ccccc5c4C[C@@H](C)N3CC(C)(C)F)c(F)c2)C(C)(C)C)cc1` [Example 131, (2S,4R)-1-((S)-2-(2-((5-(3,5-Difluoro-4-((1R,3R)-2-(2-fluoro-2-methylpropyl)-3-methyl-2,3,4,9-tetrahydro-1H-pyrido[3,4-b]indol-1-yl)phenoxy)-3,3-difluoropentyl)amino)acetamido)-3,3-dimethylbutanoyl)-4-hydroxy-N-(4-(4-methylthiazol-5-yl)benzyl)pyrrolidine-2-carboxamide], the half-maximal inhibitory concentration (IC50) was 1.6 nM.

As for `Cc1ncsc1-c1ccc(CNC(=O)[C@@H]2C[C@@H](O)CN2C(=O)[C@@H](NC(=O)COCc2cccc(COc3cc(F)c([C@@H]4c5[nH]c6ccccc6c5C[C@@H](C)N4CC(C)(C)F)c(F)c3)n2)C(C)(C)C)cc1` [Example 132, (2S,4R)-1-((S)-2-(2-((6-((3,5-Difluoro-4-((1R,3R)-2-(2-fluoro-2-methylpropyl)-3-methyl-2,3,4,9-tetrahydro-1H-pyrido[3,4-b]indol-1-yl)phenoxy)methyl)pyridin-2-yl)methoxy)acetamido)-3,3-dimethylbutanoyl)-4-hydroxy-N-(4-(4-methylthiazol-5-yl)benzyl)pyrrolidine-2-carboxamide], the IC50 was 0.5 nM.

Consider `Cc1ncsc1-c1ccc(CNC(=O)[C@@H]2C[C@@H](O)CN2C(=O)[C@@H](NC(=O)COCc2ccnc(COc3cc(F)c([C@@H]4c5[nH]c6ccccc6c5C[C@@H](C)N4CC(C)(C)F)c(F)c3)c2)C(C)(C)C)cc1` [Example 134, (2S,4R)-1-((S)-2-(2-((2-((3,5-Difluoro-4-((1R,3R)-2-(2-fluoro-2-methylpropyl)-3-methyl-2,3,4,9-tetrahydro-1H-pyrido[3,4-b]indol-1-yl)phenoxy)methyl)pyridin-4-yl)methoxy)acetamido)-3,3-dimethylbutanoyl)-4-hydroxy-N-(4-(4-methylthiazol-5-yl)benzyl)pyrrolidine-2-carboxamide], for which the IC50 amounted to 0.6 nM.

For `Cc1ncsc1-c1ccc(CNC(=O)[C@@H]2C[C@@H](O)CN2C(=O)[C@@H](NC(=O)COCCCCCOCCCOc2cc(F)c([C@@H]3c4[nH]c5ccccc5c4C[C@@H](C)N3CC(C)(C)F)c(F)c2)C(C)(C)C)cc1` [Example 136, (2S,4R)-1-((S)-2-(2-((5-(3-(3,5-Difluoro-4-((1R,3R)-2-(2-fluoro-2-methylpropyl)-3-methyl-2,3,4,9-tetrahydro-1H-pyrido[3,4-b]indol-1-yl)phenoxy)propoxy)pentyl)oxy)acetamido)-3,3-dimethylbutanoyl)-4-hydroxy-N-(4-(4-methylthiazol-5-yl)benzyl)pyrrolidine-2-carboxamide], the IC50 is 1.2 nM.

Turning to `Cc1ncsc1-c1ccc([C@H](C)NC(=O)[C@@H]2C[C@@H](O)CN2C(=O)[C@@H](NC(=O)COCCCOCCCCCOc2cc(F)c([C@@H]3c4[nH]c5ccccc5c4C[C@@H](C)N3CC(C)(C)F)c(F)c2)C(C)(C)C)cc1` [Example 137, (2S,4R)-1-((S)-2-(2-(3-((5-(3,5-Difluoro-4-((R,3R)-2-(2-fluoro-2-methylpropyl)-3-methyl-2,3,4,9-tetrahydro-1H-pyrido[3,4-b]indol-1-yl)phenoxy)pentyl)oxy)propoxy)acetamido)-3,3-dimethylbutanoyl)-4-hydroxy-N—((S)-1-(4-(4-methylthiazol-5-yl)phenyl)ethyl)pyrrolidine-2-carboxamide], the half-maximal inhibitory concentration (IC50) came to 0.8 nM.

On to `Cc1ncsc1-c1ccc(CNC(=O)[C@@H]2C[C@@H](O)CN2C(=O)[C@@H](NC(=O)COCCCOCCCCCOc2cc(F)c([C@@H]3c4[nH]c5ccccc5c4C[C@@H](C)N3CC(C)(C)F)c(F)c2)C(C)(C)C)cc1` [Example 138, (2S,4R)-1-((S)-2-(2-(3-((5-(3,5-Difluoro-4-((R,3R)-2-(2-fluoro-2-methylpropyl)-3-methyl-2,3,4,9-tetrahydro-1H-pyrido[3,4-b]indol-1-yl)phenoxy)pentyl)oxy)propoxy)acetamido)-3,3-dimethylbutanoyl)-4-hydroxy-N-(4-(4-methylthiazol-5-yl)benzyl)pyrrolidine-2-carboxamide], for which the IC50 stood at 0.6 nM.

With `Cc1ncsc1-c1ccc(CNC(=O)[C@@H]2C[C@@H](O)CN2C(=O)[C@@H](NC(=O)COCCOCCCCCOc2cc(F)c([C@@H]3c4[nH]c5ccccc5c4C[C@@H](C)N3CC(F)(F)F)c(F)c2)C(C)(C)C)cc1` [Example 139, (2S,4R)-1-((S)-2-(2-(2-((5-(3,5-Difluoro-4-((1R,3R)-3-methyl-2-(2,2,2-trifluoroethyl)-2,3,4,9-tetrahydro-1H-pyrido[3,4-b]indol-1-yl)phenoxy)pentyl)oxy)ethoxy)acetamido)-3,3-dimethylbutanoyl)-4-hydroxy-N-(4-(4-methylthiazol-5-yl)benzyl)pyrrolidine-2-carboxamide], the IC50 was 0.5 nM.

For the molecule `Cc1ncsc1-c1ccc([C@H](C)NC(=O)[C@@H]2C[C@@H](O)CN2C(=O)[C@@H](NC(=O)COCCOCCCCCOc2cc(F)c([C@@H]3c4[nH]c5ccccc5c4C[C@@H](C)N3CC(F)(F)F)c(F)c2)C(C)(C)C)cc1` [Example 140, (2S,4R)-1-((S)-2-(2-(2-((5-(3,5-Difluoro-4-((1R,3R)-3-methyl-2-(2,2,2-trifluoroethyl)-2,3,4,9-tetrahydro-1H-pyrido[3,4-b]indol-1-yl)phenoxy)pentyl)oxy)ethoxy)acetamido)-3,3-dimethylbutanoyl)-4-hydroxy-N—((S)-1-(4-(4-methylthiazol-5-yl)phenyl)ethyl)pyrrolidine-2-carboxamide], the 50% inhibitory concentration (IC50) is 0.5 nM.

In the case of `Cc1ncsc1-c1ccc(CNC(=O)[C@@H]2C[C@@H](O)CN2C(=O)[C@@H](NC(=O)CCCc2ccc(COc3cc(F)c([C@@H]4c5[nH]c6ccccc6c5C[C@@H](C)N4CC(C)(C)F)c(F)c3)nc2)C(C)(C)C)cc1` [Example 141, (2S,4R)-1-((S)-2-(4-(6-((3,5-Difluoro-4-((1R,3R)-2-(2-fluoro-2-methylpropyl)-3-methyl-2,3,4,9-tetrahydro-1H-pyrido[3,4-b]indol-1-yl)phenoxy)methyl)pyridin-3-yl)butanamido)-3,3-dimethylbutanoyl)-4-hydroxy-N-(4-(4-methylthiazol-5-yl)benzyl)pyrrolidine-2-carboxamide], the IC50 came to 1.2 nM.
